Patent US20150218172A1, “Pyrrolo[2,3-D]Pyrimidine Tropomyosin-Related Kinase Inhibitors” (PFIZER LIMITED, priority 2012, published 2015)

Target: T1, TrkA (Homo sapiens, UniProt P04629)
T1 construct: aa 441-796; His; purchased Invitrogen PV3144
Assay: Isolated TRK enzyme assay (HTRF KinEASE-TK kit), PV3144 TrkA enzyme assay
Assay type: biochemical
Conditions: PV3144 TrkA enzyme assay, recombinant His-tagged cytoplasmic domain aa 441-796, 4 nM enzyme, 40 uM ATP; arithmetic mean where more than one reading; read-out: Trka enzyme (IC50)
Protocol: Isolated TRK Enzyme assays use the HTRF KinEASE-TK kit (Cisbio Cat#62TK0PEJ) with recombinant His-tagged cytoplasmic domains of each TRK receptor sourced from Invitrogen (see table below). This activity-assay measures the phosphorylation of tyrosine residues within a substrate from the HTRF kit which has been validated by Cisbio for a variety of tyrosine kinases including the TRK receptors.
0.5 mM stock solutions of test compounds are prepared and serially diluted in 100% DMSO. A standard curve using the compound of Example 135 disclosed in WO2005/116035 of 150 uM is also prepared on each test plate. High percentage effect (HPE) is defined by 150 uM (using the compound of Example 135 as disclosed in WO2005/116035) and 0% effect (ZPE) is defined by 100% DMSO. Greiner low volume black plates containing 0.2 ul of serially diluted compound, standard and HPE/ZPE are created using the Bravo nanolitre dispenser.
1X enzyme buffer is prepared from 5X Enzymatic Buffer from the Cisbio KinEASE TK kit using MilliQ water. The buffer is then supplemented with 10 mM MgCl and 2 mM DTT (both from Sigma). In the case of TRKB, the buffer is also supplemented with 125 nM Supplement Enzymatic Buffer (SEB) from the Cisbio kit.
2X FAC of enzyme and 2X FAC ATP diluted in 1X complete enzyme buffer is incubated at room temperature for 20 minutes to preactivate the enzyme. Following this preactivation step, 5 ul/well of enzyme+ATP mix is added using a Multidrop Micro to the assay plate, spotted with 0.2 ul 100% DMSO compound. This is left for 20 mins at room temperature before adding 5 ul of 2 uM TK-substrate-Biotin (from the Cisbio kit) diluted in 1X enzyme buffer (1 uM FAC) using the Multidrop Micro. The reaction is incubated at room temperature for the optimized assay reaction time (see table). The reaction is stopped by adding 10 ul/well HTRF Detection Buffer containing 0.25 uM Streptavidin-XL665 (0.125 uM FAC) and 1:200 TK Antibody-Cryptate using a Multidrop.
After the Detection Reagent addition, plates are covered and incubated at room temperature for 60 minutes. HTRF signal is read using an Envision reader, measured as a ratio of emissions at two different wavelengths, 620 nm and 665 nm. […] Test compound data are expressed as percentage inhibition defined by HPE and ZPE values for each plate. Percentage inhibition in the presence of test compound is plotted against compound concentration on a log scale to determine an IC50 from the resultant sigmoid curve.
Below are TrkA IC50 data generated using the PV3144 TrkA enzyme assay. Where more than one reading was taken, the arithmetic mean is presented.

T1 sequence (P04629 441-796): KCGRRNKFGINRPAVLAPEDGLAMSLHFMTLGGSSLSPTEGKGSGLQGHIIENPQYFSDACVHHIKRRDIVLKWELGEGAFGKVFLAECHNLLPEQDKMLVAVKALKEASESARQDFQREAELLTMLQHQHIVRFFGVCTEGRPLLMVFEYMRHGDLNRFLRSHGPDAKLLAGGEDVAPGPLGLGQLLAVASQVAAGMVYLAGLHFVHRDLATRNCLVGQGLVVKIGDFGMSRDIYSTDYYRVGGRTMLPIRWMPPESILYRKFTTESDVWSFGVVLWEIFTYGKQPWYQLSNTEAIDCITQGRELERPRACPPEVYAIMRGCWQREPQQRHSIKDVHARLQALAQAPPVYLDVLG

C[C@@H](CO)n1cc(C(=O)c2cc(NC(=O)Cn3cc(C(F)(F)F)nn3)ccn2)c2cncnc21 [Example 31, N-[2-({7-[(2S)-1-hydroxypropan-2-yl]-7H-pyrrolo[2,3-d]pyrimidin-5-yl}carbonyl)pyridin-4-yl]-2-[4-(trifluoromethyl)-1H-1,2,3-triazol-1-yl]acetamide]
IC50: 78.1 nM

CC(C)(CO)n1cc(C(=O)c2cc(NC(=O)Cc3cccc(C(F)(F)F)c3)ccn2)c2cnc(N)nc21 [Example 49, N-(2-{[2-amino-7-(1-hydroxy-2-methylpropan-2-yl)-7H-pyrrolo[2,3-d]pyrimidin-5-yl]carbonyl}pyridin-4-yl)-2-[3-(trifluoromethyl)phenyl]acetamide]
IC50: 9.7 nM

CC(C)n1cc(C(=O)c2ccnc(NC(=O)Cc3ccc(Cl)cn3)c2)c2cncnc21 [Example 74, 2-(5-chloropyridin-2-yl)-N-(4-{[7-(propan-2-yl)-7H-pyrrolo[2,3-d]pyrimidin-5-yl]carbonyl}pyridin-2-yl)acetamide]
IC50: 20.9 nM

CC(C)(CO)n1cc(C(=O)c2cc(NC(=O)Cc3ccc(Cl)cn3)ccn2)c2cnc(N)nc21 [Example 52, N-(2-{[2-amino-7-(1-hydroxy-2-methylpropan-2-yl)-7H-pyrrolo[2,3-d]pyrimidin-5-yl]carbonyl}pyridin-4-yl)-2-(5-chloropyridin-2-yl)acetamide]
IC50: 73.1 nM

CC(C)n1cc(C(=O)c2ccnc(NC(=O)Cc3ccc(Cl)cc3Cl)c2)c2cncnc21 [Example 157, 2-(2,4-dichlorophenyl)-N-(4-{[7-(propan-2-yl)-7H-pyrrolo[2,3-d]pyrimidin-5-yl]carbonyl}pyridin-2-yl)acetamide]
IC50: 15.6 nM

CC(C)n1cc(C(=O)c2ccnc(NC(=O)Cc3ccc(Cl)cc3)c2)c2cncnc21 [Example 67, 2-(4-chlorophenyl)-N-(4-{[7-(propan-2-yl)-7H-pyrrolo[2,3-d]pyrimidin-5-yl]carbonyl}pyridin-2-yl)acetamide]
IC50: 28.9 nM

CC(C)n1cc(C(=O)c2ccnc(NC(=O)Cn3cc(C(F)(F)F)nn3)c2)c2cncnc21 [Example 116, N-(4-{[7-(propan-2-yl)-7H-pyrrolo[2,3-d]pyrimidin-5-yl]carbonyl}pyridin-2-yl)-2-[4-(trifluoromethyl)-1H-1,2,3-triazol-1-yl]acetamide]
IC50: 59.7 nM

C[C@H](CO)n1cc(C(=O)c2cc(NC(=O)Cc3ccc(C#N)cc3)ccn2)c2cncnc21 [Example 23, 2-(4-cyanophenyl)-N-[2-({7-[(2R)-1-hydroxypropan-2-yl]-7H-pyrrolo[2,3-d]pyrimidin-5-yl}carbonyl)pyridin-4-yl]acetamide]
IC50: 79.1 nM

O=C(Cn1ccc(C(F)(F)F)n1)Nc1ccnc(C(=O)c2cn(C(CO)CO)c3ncncc23)c1 [Example 101, N-(2-{[7-(1,3-dihydroxypropan-2-yl)-7H-pyrrolo[2,3-d]pyrimidin-5-yl]carbonyl}pyridin-4-yl)-2-[3-(trifluoromethyl)-1H-pyrazol-1-yl]acetamide]
IC50: 247 nM

Cc1cc(C)n(CC(=O)Nc2cc(C(=O)c3cn(C(C)(C)C)c4ncncc34)ccn2)n1 [Example 174, N-{4-[(7-tert-butyl-7H-pyrrolo[2,3-d]pyrimidin-5-yl)carbonyl}pyridin-2-yl]-2-(3,5-dimethyl-1H-pyrazol-1-yl)acetamide]
IC50: 27.3 nM

CC(C)n1cc(C(=O)c2ccnc(NC(=O)Cc3ccc(C(F)(F)F)cc3)c2)c2cncnc21 [Example 122, N-(4-{[7-(propan-2-yl)-7H-pyrrolo[2,3-d]pyrimidin-5-yl]carbonyl}pyridin-2-yl)-2-[4-(trifluoromethyl)phenyl]acetamide]
IC50: 4.24 nM

CC(C)n1cc(C(=O)c2ccnc(NC(=O)Cc3cccc(S(C)(=O)=O)c3)c2)c2cncnc21 [Example 123, 2-[3-(methylsulfonyl)phenyl]-N-(4-{[7-(propan-2-yl)-7H-pyrrolo[2,3-d]pyrimidin-5-yl]carbonyl}pyridin-2-yl)acetamide]
IC50: 42.1 nM

CC(C)(CO)n1cc(C(=O)c2cc(NC(=O)Cc3ccc(C#N)cc3)ccn2)c2cncnc21 [Example 57, 2-(4-cyanophenyl)-N-(2-{[7-(1-hydroxy-2-methylpropan-2-yl)-7H-pyrrolo[2,3-d]pyrimidin-5-yl]carbonyl}pyridin-4-yl)acetamide]
IC50: 66.1 nM

CC(CO)(CO)n1cc(C(=O)c2cc(NC(=O)Cn3ccc(C(F)(F)F)n3)ccn2)c2cncnc21 [Example 105, N-(2-{[7-(1,3-dihydroxy-2-methylpropan-2-yl)-7H-pyrrolo[2,3-d]pyrimidin-5-yl]carbonyl}pyridin-4-yl)-2-[3-(trifluoromethyl)-1H-pyrazol-1-yl]acetamide]
IC50: 72.7 nM

CC(C)(CO)n1cc(C(=O)c2ccc(C#N)c(NC(=O)Cc3ccc(Cl)cc3)c2)c2cnc(N)nc21 [Example 9, N-(5-{[2-amino-7-(1-hydroxy-2-methylpropan-2-yl)-7H-pyrrolo[2,3-d]pyrimidin-5-yl]carbonyl}-2-cyanophenyl)-2-(4-chlorophenyl)acetamide]
IC50: 11.1 nM

CC(C)n1cc(C(=O)c2ccnc(NC(=O)Cc3ccc(OC(F)(F)F)cc3)c2)c2cncnc21 [Example 120, N-(4-{[7-(propan-2-yl)-7H-pyrrolo[2,3-d]pyrimidin-5-yl]carbonyl}pyridin-2-yl)-2-[4-(trifluoromethoxy)phenyl]acetamide]
IC50: 18.6 nM

CC(C)(CO)n1cc(C(=O)c2ccc(C#N)c(NC(=O)Cc3ccc(C(F)(F)F)cc3)c2)c2cnc(N)nc21 [Example 7, N-{5-[2-Amino-7-(2-hydroxy-1,1-dimethyl-ethyl)-7H-pyrrolo[2,3-d]pyrimidine-5-carbonyl]-2-cyano-phenyl}-2-(4-trifluoromethyl-phenyl)-acetamide]
IC50: 5.93 nM

O=C(Cc1ccc(C(F)(F)F)c(F)c1)Nc1cc(C(=O)c2cn(CCO)c3ncncc23)ccn1 [Example 142, 2-[3-fluoro-4-(trifluoromethyl)phenyl]-N-(4-{[7-(2-hydroxyethyl)-7H-pyrrolo[2,3-d]pyrimidin-5-yl]carbonyl}pyridin-2-yl)acetamide]
IC50: 29.5 nM

Cc1cc(C)n(CC(=O)Nc2cc(C(=O)c3cn(CC4(O)CC4)c4ncncc34)ccn2)n1 [Example 177, 2-(3,5-Dimethyl-1H-pyrazol-1-yl)-N-[4-({7-[(1-hydroxycyclopropyl)methyl]-7H-pyrrolo[2,3-d]pyrimidin-5-yl}carbonyl)pyridin-2-yl]acetamide]
IC50: 617 nM

O=C(Cc1cccc(OC(F)(F)F)c1)Nc1cc(C(=O)c2cn(CCO)c3ncncc23)ccn1 [Example 135, N-(4-{[7-(2-hydroxyethyl)-7H-pyrrolo[2,3-d]pyrimidin-5-yl]carbonyl}pyridin-2-yl)-2-[3-(trifluoromethoxy)phenyl]acetamide]
IC50: 21.5 nM

Cc1cc(C(C)C)nn1CC(=O)Nc1cc(C(=O)c2cn(C(C)C)c3ncncc23)ccn1 [Example 151, 2-[5-methyl-3-(propan-2-yl)-1H-pyrazol-1-yl]-N-(4-{[7-(propan-2-yl)-7H-pyrrolo[2,3-d]pyrimidin-5-yl]carbonyl}pyridin-2-yl)acetamide]
IC50: 21.2 nM

CC(CO)n1cc(C(=O)c2ccnc(NC(=O)Cc3ccc(C#N)cc3)c2)c2cncnc21 (single isomer, unassigned) [Example 34, 2-(4-cyanophenyl)-N-(4-{[7-(1-hydroxypropan-2-yl)-7H-pyrrolo[2,3-d]pyrimidin-5-yl]carbonyl}pyridin-2-yl)acetamide]
IC50: 332 nM

O=C(Cn1cc(C(F)(F)F)nn1)Nc1cc(C(=O)c2cn(CCO)c3ncncc23)ccn1 [Example 137, N-(4-{[7-(2-hydroxyethyl)-7H-pyrrolo[2,3-d]pyrimidin-5-yl]carbonyl}pyridin-2-yl)-2-[4-(trifluoromethyl)-1H-1,2,3-triazol-1-yl]acetamide]
IC50: 188 nM

O=C(Cc1ccc(F)cc1F)Nc1cc(C(=O)c2cn(CCO)c3ncncc23)ccn1 [Example 140, 2-(2,4-difluorophenyl)-N-(4-{[7-(2-hydroxyethyl)-7H-pyrrolo[2,3-d]pyrimidin-5-yl]carbonyl}pyridin-2-yl)acetamide]
IC50: 223 nM

Cc1cc(C(F)(F)F)nn1CC(=O)Nc1cc(C(=O)c2cn(CCO)c3ncncc23)ccn1 [Example 132, N-(4-{[7-(2-hydroxyethyl)-7H-pyrrolo[2,3-d]pyrimidin-5-yl]carbonyl}pyridin-2-yl)-2-[5-methyl-3-(trifluoromethyl)-1H-pyrazol-1-yl]acetamide]
IC50: 48.2 nM
